Literature values, collected in patent US9827227B2, “Controlled release pharmaceutical formulations of nitazoxanide” (Romark Laboratories L.C., priority 2009, dated 2017).

Experiments:
hepatitis C virus (HCV) = conditions: in vitro and in clinical trials, in words
DNA viruses = conditions: in vitro, in words
[1] = after oral administration of nitazoxanide in humans

Compound: CC(=O)Oc1ccccc1C(=O)Nc1ncc([N+](=O)[O-])s1 [Nitazoxanide, 2-(acetolyloxy)-N-(5-nitro-2-thiazolyl) benzamide]
- activity against hepatitis C virus (HCV) (hepatitis C virus (HCV)): activity against hepatitis C virus
- activity against certain DNA viruses (DNA viruses): active

Compound: O=C(Nc1ncc([N+](=O)[O-])s1)c1ccccc1O [tizoxanide]
- activity against hepatitis C virus (HCV) (hepatitis C virus (HCV)): activity against hepatitis C virus
- half-life in plasma [1]: approximately 1.5 hours
- activity against certain DNA viruses (DNA viruses): active
